In patent US20240041878A1, “APELIN RECEPTOR MODULATORS FOR TREATMENT OF A DISORDER OR DISEASE ASSOCIATED WITH BBB PERMEABILITY” (BioAge Labs, Inc., priority 2022, published 2024):

Columns and labels:
26 month-old mice [1] = test: Mouse Cytokine Array Panel on plasma of aged mice; format: in vivo; details: 50 mg/kg BID P.O. one week, 10 of 40 cytokines detectable
Protocol: The mice were handled in accordance with principles and guidelines established by the “Guide for the Care and Use of Laboratory Animals” and overseen by the BioAge Lab's institutional animal care and use committee (IACUC). Mice were housed conventionally in a constant temperature (20-22° C.) and humidity (40%-60%) animal room with a 12/12 h light/dark cycle and free access to food and water. 26 month-old mice were randomized based on the body weight and body condition scores to two groups (vehicle or BGE-105, n=8). 4 month-old female mice were used as an additional control group (vehicle, n=4). Mice were administered P.O. vehicle or BGE-105 at 50 mg/kg (BID) for one week. After completion of dosing, blood samples were collected via retro-orbital bleeding under isoflurane anesthesia into K2-EDTA tubes to prevent coagulation. Mice were euthanized via transcardiac perfusion under isoflurane anesthesia. Whole blood was centrifuged to isolate plasma, which was stored at −80° C. until further experimentation.
For qualitative analysis of 40 different cytokines, plasma samples were assessed with the Mouse Cytokine Array Panel (R&D Systems) according to manufacturer's instructions. […] The optical of each dot on the array serves as a relative measure of cytokine abundance (e.g., a more intensely-stained dot denotes more cytokine present in the sample) and was analyzed with ImageJ software (NIH).

26 month-old mice [2] = test: Quantikine ELISAs for mouse CXCL1 and CXCL13 in plasma of aged mice; format: in vivo; details: 50 mg/kg BID P.O. one week, p<0.05
Protocol: The mice were handled in accordance with principles and guidelines established by the “Guide for the Care and Use of Laboratory Animals” and overseen by the BioAge Lab's institutional animal care and use committee (IACUC). Mice were housed conventionally in a constant temperature (20-22° C.) and humidity (40%-60%) animal room with a 12/12 h light/dark cycle and free access to food and water. 26 month-old mice were randomized based on the body weight and body condition scores to two groups (vehicle or BGE-105, n=8). 4 month-old female mice were used as an additional control group (vehicle, n=4). Mice were administered P.O. vehicle or BGE-105 at 50 mg/kg (BID) for one week. After completion of dosing, blood samples were collected via retro-orbital bleeding under isoflurane anesthesia into K2-EDTA tubes to prevent coagulation. Mice were euthanized via transcardiac perfusion under isoflurane anesthesia. […]
For quantitative analysis, plasma samples were assessed with Quantikine® enzyme-linked immunosorbent assays (ELISAs) for mouse CXCL1 and CXCL13 (R&D Systems) according to manufacturer's instructions. Optical density of the completed ELISA was imaged using a SpectraMax iD5 (Molecular Devices), sample concentrations were calculated compared to a standard curve, and relative change with age+/−BGE-105 treatment was calculated with young mouse plasma serving as the normalization.

Mouse primary astrocytes = test: Astrocyte glutamate uptake; format: cell-based; details: RAC+BGE-105 [10 nM, 50 nM, 250 nM] versus RAC
Protocol: To stimulate astrocytes into a reactive state found in aging and neurodegenerative diseases per previous publications (Liddelow et al., 2017; Barbar et al., 2020), a combination of the cytokines TNF-α and IL-1α, and complement factor C1q, were added at 30 ng/mL, 3 ng/mL, and 400 ng/mL, respectively, into astrocyte culture media to make 'reactive astrocyte cocktail' (RAC) media. […] Bachem, Cat. #4029110), BAY-11-7082 (50 μM; Abcam, Cat. #ab141228) or equal volume of vehicle (0.01% DMSO in PBS) (hereafter referred to as 'RAC treatment'). […] Fresh HBSS was added to each well and 100 μM glutamate (Sigma, Cat. #G1251) was added to each well. Empty wells not containing cells were filled with HBSS and 100 μM [NT] negative control. Cells were incubated at room temperature for 3 hours before HBSS was collected and glutamate concentration determined by colorimetric assay (Sigma, Cat. #MAK004). Relative change in glutamate uptake was calculated compared to negative control wells.

[3] = system: healthy volunteers aged 65 or older; test: Phase 1b clinical trial, 10 days of bed rest; format: in vivo, human; details: infusions
Text: The study described herein characterizes the effects of BGE-105 on immune biomarkers in human in a Phase 1b clinical trial directed to treatment of muscular atrophy. […] The double-blind, placebo-controlled trial evaluated the safety and pharmacodynamics of BGE-105. Twenty-one volunteers underwent 10 days of bed rest while receiving infusions of BGE-105 or placebo. Biological samples from treated and placebo groups were collected on Day 6 and Day 11.

[4] = system: primary SOD1^G93A mouse astrocytes; test: Primary SOD1^G93A mouse astrocytes: cytokine release and NF-κB signaling; format: cell-based
Text: The study characterizes effects of BGE-105 on primary astrocytes derived from wildtype and SOD1^G93A mice in vitro. This includes measuring effects on gene expression, secretion of inflammatory cytokines, and glutamate uptake.
The study utilizes primary mouse astrocyte and neuron cultures generated from the SOD1^G93A mouse model of familial ALS as previously described (Lundquist et al. 2019. Exercise induces region-specific remodeling of astrocyte morphology and reactive astrocyte gene expression patterns in male mice. Journal of Neuroscience Research, 97(9), 1081-1094) with some modifications. Briefly, whole spinal cords are resected from PNDO-4 (postnatal day) SOD1^G93A+ pups and wildtype littermates. […]
Astrocytes from wildtype and SOD1^G93A mice are first studied in isolation to compare transcriptomic and cytokine release profiles. […] ACM (astrocyte-conditioned media) are analyzed for release of cytokines and neurotrophic factors using Mouse Proteome Profiler Arrays (R&D Systems), and commercially available ELISAs (for select cytokines from protein arrays). Astrocytic gene expression are analyzed by RT-qPCR, and astrocyte protein expression are analyzed by western blotting as previously described (Lundquist et al, 2022).

apelin receptor = biological target: T1, apelin receptor (Homo sapiens, UniProt P35414); details: Ason et al., JCI Insight 2020; cited from earlier work
T1 sequence (P35414 1-380): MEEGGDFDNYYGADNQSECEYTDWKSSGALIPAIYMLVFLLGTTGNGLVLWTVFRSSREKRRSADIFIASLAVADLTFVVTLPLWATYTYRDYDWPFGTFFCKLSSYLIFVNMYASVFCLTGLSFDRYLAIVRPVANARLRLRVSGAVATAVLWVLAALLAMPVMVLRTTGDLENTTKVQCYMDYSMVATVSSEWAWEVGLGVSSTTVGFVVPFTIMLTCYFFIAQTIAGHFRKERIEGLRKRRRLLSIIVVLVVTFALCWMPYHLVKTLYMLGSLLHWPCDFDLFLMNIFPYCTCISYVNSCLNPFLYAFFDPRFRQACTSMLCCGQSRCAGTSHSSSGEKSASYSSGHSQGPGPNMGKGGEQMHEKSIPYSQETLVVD

rats = details: Ason et al., JCI Insight 2020; cited from earlier work

With `COc1cccc(OC)c1-n1c(NS(=O)(=O)[C@@H](C)[C@H](C)c2ncc(C)cn2)nnc1-c1cncc(C)c1` [BGE-105, (2S,3R)—N-(4-(2,6-dimethoxyphenyl)-5-(5-methyl-3-pyridinyl)-4H-1,2,4-triazol-3-yl)-3-(5-methyl-2-pyrimidinyl)-2-butanesulfonamide] the “average decrease of optical density of the detectable cytokines in plasma cytokine array” value (26 month-old mice [1]) was 28%, the “reduction of CXCL1 concentrations in plasma” value (26 month-old mice [2]) was 35% and the “reduction of CXCL13 concentrations in plasma” value (26 month-old mice [2]) was 26%. The “percentage of glutamate uptake in RAC astrocytes” value (Mouse primary astrocytes) was “significantly and statistically increased”, the tolerability ([3]; 10 days of bed rest) was “well tolerated” and the “muscle atrophy relative to placebo” value ([3]; 10 days of strict bed rest) was “statistically significant prevention”. For the same molecule, the “release of proinflammatory cytokines into astrocyte conditioned media (ACM)” value ([4]; 250 nM BGE-105, 24 hours) was “release less proinflammatory cytokines”, the NF-κB signaling activity ([4]; untreated versus BGE-105 treated SOD1^G93A astrocytes) was “changes to NF-κB signaling activity” and the “activation of the apelin receptor” value (apelin receptor) was “known to activate”. The cardiovascular response (rats) was “induces a cardiovascular response”.
